Experimental data from ChEMBL document CHEMBL6120935, “Multifunctional Molecular Hybrids Photoreleasing Nitric Oxide: Advantages, Pitfalls, and Opportunities” (J Med Chem, 2024).

Assay: n-Octanol/PBS partition coefficient, logP of compound at pH 7.4 incubated for 4 hrs under shaking condition by UV spectrophotometric analysis
Format: physicochemical

Row | SMILES | logD at 4 h
1 | O=C(CCCCC[P+](c1ccccc1)(c1ccccc1)c1ccccc1)NCCCNc1ccc([N+](=O)[O-])c(C(F)(F)F)c1 | 2.39
2 | CC(=O)NCCCNc1ccc([N+](=O)[O-])c(C(F)(F)F)c1 | 2.03
3 | O=C(CC[P+](c1ccccc1)(c1ccccc1)c1ccccc1)NCCCNc1ccc([N+](=O)[O-])c(C(F)(F)F)c1 | 1.99

Second part, the molecule after the results:

Row | logD at 4 h | SMILES
4 | 2.78 | O=C(CCCCCCCC[P+](c1ccccc1)(c1ccccc1)c1ccccc1)NCCCNc1ccc([N+](=O)[O-])c(C(F)(F)F)c1
5 | 3.24 | O=C(CCCCCCCCC[P+](c1ccccc1)(c1ccccc1)c1ccccc1)NCCCNc1ccc([N+](=O)[O-])c(C(F)(F)F)c1
